The record followed here is patent publication US11168102B1, “Bicyclic heteroaryl compounds and uses thereof” (Revolution Medicines, Inc., priority 2019, dated 2021).

In test [1] the target is SOS1 catalytic domain (residues 564-1049) (Homo sapiens (Human), UniProt Q07889). The test can be described thus: Potency assay: binding affinity to SOS1 by Surface Plasmon Resonance (SPR). The conditions noted are these: avi-tagged SOS1 catalytic domain immobilized on sensor chip; 1:1 equilibrium binding fit.
Test [2] relates to cellular pERK in PC-9 cells (EGFR Ex19Del). The test can be described thus: Potency assay: pERK (AlphaLISA SureFire Ultra p-ERK1/2) in PC-9 cells. The test is classed as cell-based. To be noted: Homo sapiens, PC-9, 1 h, PC-9 cells (EGFR Ex19Del), 1 hour incubation, AlphaLISA SureFire Ultra p-ERK1/2; read-out: SOS1 pERK IC50.
Test [3] addresses SOS1 nucleotide exchange of wild-type KRAS (Homo sapiens (Human), UniProt Q07889). The test can be described thus: Mode of action assay: inhibition of SOS1 nucleotide exchange activity (TR-FRET). To be noted: SOS1 catalytic domain (564-1049), avi-tagged KRAS (1-169), EDA-GTP-DY-647P1; three replicates. Format: biochemical.

Sequence of SOS1 catalytic domain (residues 564-1049) (Q07889 564-1049): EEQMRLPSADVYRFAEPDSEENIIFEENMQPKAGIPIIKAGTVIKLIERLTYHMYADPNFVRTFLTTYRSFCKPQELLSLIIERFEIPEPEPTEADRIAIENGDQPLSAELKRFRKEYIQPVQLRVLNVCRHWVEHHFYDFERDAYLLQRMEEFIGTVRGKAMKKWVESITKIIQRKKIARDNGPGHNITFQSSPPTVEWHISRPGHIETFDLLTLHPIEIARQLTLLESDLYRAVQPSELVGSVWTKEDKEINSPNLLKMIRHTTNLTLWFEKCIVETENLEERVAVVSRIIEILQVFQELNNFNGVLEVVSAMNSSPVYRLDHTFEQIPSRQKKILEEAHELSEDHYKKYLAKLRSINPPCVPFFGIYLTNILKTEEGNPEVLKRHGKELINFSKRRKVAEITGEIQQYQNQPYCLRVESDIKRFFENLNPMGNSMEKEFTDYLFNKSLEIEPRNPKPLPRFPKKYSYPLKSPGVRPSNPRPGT
Sequence of SOS1 nucleotide exchange of wild-type KRAS (Q07889 564-1049): as above

For the compound `C[C@@H](Nc1ncnc2c1cc(C(=O)N1CC(O)(C(F)(F)F)C1)c(=O)n2C)c1cccc(C(F)F)c1F` [Example 26-41], in test [1], binding was characterised by a dissociation constant (Kd) of 420 nM. For the same compound, the IC50 in test [2] came out at 1400 nM; in test [3], 170 nM.

`C[C@@H](Nc1ncnc2c1cc(C(=O)N1CCN(C3COC3)CC1)c(=O)n2C)c1cccc(C(F)F)c1F` [Example 26-43]: the dissociation constant Kd in test [1] came out at 53.6 nM. Further, the half-maximal inhibitory concentration (IC50) in test [2] is 181 nM; in test [3] it was 37 nM.

With `C[C@@H](Nc1ncnc2c1cc(C(=O)N1CCN(C)c3ncccc31)c(=O)n2C)c1cccc(C(F)F)c1F` [Example 26-49], in test [1], the Kd was found to be 311 nM. Besides, the half-inhibitory concentration (IC50) in test [2] came out at 959 nM; in test [3], 176 nM.

In test [1], `C[C@@H](Nc1ncnc2c1cc(C1(O)CCS(=O)(=O)C1)c(=O)n2C)c1cccc(C(F)F)c1F` (stereo partly drawn) [Example 28-3] yielded an equilibrium dissociation constant (Kd) of 128 nM. Moreover, the 50% inhibitory concentration (IC50) in test [2] was 111 nM; in test [3], 99.8 nM.

In test [1], `C[C@@H](Nc1ncnc2c1cc(C1(O)CCC3(CC1)CS(=O)(=O)C3)c(=O)n2C)c1cccc(C(F)F)c1F` [Example 28-6] registered a Kd of 21 nM. For the same compound, the half-maximal inhibitory concentration (IC50) in test [2] was 123 nM; in test [3], 14 nM.

`C[C@@H](Nc1ncnc2c1cc(C1(F)CCN(C)CC1)c(=O)n2C)c1cccc(C(F)F)c1F` [Example 29-3] had a Kd in test [1] of 41.6 nM. In addition, the half-maximal inhibitory concentration (IC50) in test [2] worked out at 120 nM; in test [3], 42.4 nM.

In turn, `Cc1nc(N[C@H](C)c2cccc(C(F)F)c2F)c2cc(C3(F)CCN(C)CC3)c(=O)n(C)c2n1` [Example 29-4] showed an equilibrium dissociation constant (Kd) in test [1] of 52.2 nM. For the same compound, the IC50 in test [2] came to 144 nM; in test [3], 15.9 nM.

Compound `CC(=O)N1CCC(F)(c2cc3c(N[C@H](C)c4cccc(C(F)F)c4F)ncnc3n(C)c2=O)CC1` [Example 29-5] had a Kd in test [1] of 37.4 nM. Also, the concentration for half-maximal inhibition (IC50) in test [2] is 37.3 nM; in test [3] it was 14.8 nM.

As for `C[C@@H](Nc1ncnc2c1cc(C1CCS(=O)(=O)C1)c(=O)n2C)c1cccc(C(F)F)c1F` (stereo partly drawn) [Example 33-1], binding in test [1] was put at a Kd of 486 nM. Besides, the IC50 in test [2] was found to be 62.1 nM; in test [3] it was 42.7 nM.

One may read the Kd as the constant that tells how readily two partners part at equilibrium. Read a high Kd as weaker binding. For orientation: IC50 means the midpoint of a concentration-inhibition curve.
